# Read-outs that look alike come from different tables or passages of the source.
# How the values were obtained:
# [1] = tested on: stable HCV 1a RLuc replicon cells (genotype 1a H77 replicon); experiment: microbe, parasite or virus in culture; type: cell-based; conditions: Hepatitis C virus
# [2] = tested on: stable HCV 2a JFH-1 Rluc replicon cells (L31 present in NS5A); experiment: microbe, parasite or virus in culture; type: cell-based; conditions: Hepatitis C virus
# [3] = tested on: NS5A chimeric genotype 1b Con1 replicon with genotype 3a S52 strain NS5A gene; experiment: microbe, parasite or virus in culture; type: cell-based, HCV; conditions: Hepatitis C virus
# Outline: (§1)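 Con1 1b replicons carrying 3a S52 or 4a ED43 NS5A with Pi-RLuc reporter were transiently transfected into Huh-Lunet cells; 2b MD2b-1 NS5A (M31) in JFH-1 2a backbone with RLuc-Neo, transient or stable.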
# [4] = tested on: NS5A chimeric genotype 2a JFH-1 replicon with genotype 2a J6 strain NS5A gene (M31 present); experiment: microbe, parasite or virus in culture; type: cell-based, HCV; conditions: Hepatitis C virus
# [5] = tested on: NS5A chimeric genotype 2a JFH-1 replicon with genotype 2b MD2b-1 strain NS5A gene (M31 present); experiment: microbe, parasite or virus in culture; type: cell-based, HCV; conditions: Hepatitis C virus
# Outline: as §1
# [6] = tested on: NS5A chimeric genotype 1b Con1 replicon with genotype 4a ED43 strain NS5A gene; experiment: microbe, parasite or virus in culture; type: cell-based, HCV; conditions: Hepatitis C virus
# [7] = tested on: 1a Pi-Rluc replicon with Q30R in genotype 1a NS5A; experiment: microbe, parasite or virus in culture; type: cell-based, HCV; conditions: Hepatitis C virus
# Outline: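 Renilla luciferase replicon assay: 1a Pi-RLuc replicon carrying NS5A Q30R, transfected transiently into cured-51 (Huh-7-derived) cells.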
# [8] = IV and PO single dose pharmacokinetic studies in SD rats; type: in vivo; conditions: male, Sprague-Dawley, rat, plasma, IV infusion 1 mg/kg vs oral gavage 2 mg/kg, read-out: Rat % F
# Method: IV and PO Single Dose Pharmacokinetic Studies in SD Rats: The pharmacokinetics of selected compounds was characterized in male Sprague-Dawley (SD) rats (250-300g). […] The intravenous (IV) dosing vehicle was 5% ethanol, 35% polyethylene glycol 400 (PEG 400) and 60% water pH 2.0. […] Serial blood samples (approximately 0.3 mL each) were collected from jugular vein or other suitable vein at specified time points. […] The blood samples were collected into Vacutainer™ tubes containing EDTA-K3 as the anti-coagulant and were centrifuged at approximately 4° C. to obtain plasma. The plasma samples were stored at −20° C. until analysis by LC/MS/MS. A bioanalytical method utilizing high performance liquid chromatography coupled to tandem mass spectrometry (LC/MS/MS) was developed for analysis of the selected compound in rat plasma. Detection was performed using selected reaction monitoring (SRM); […] Standard curve and quality control samples were prepared in male rat plasma and processed in the same way as the test samples to generate quantitative data. Pharmacokinetic parameters were generated using non-compartmental pharmacokinetic analysis (Phoenix WinNonlin, version 6.3). Values below the lower limit of quantification (LLOQ) were assigned a value of zero if predose and treated as missing thereafter. Area under the curve (AUC) was calculated using the linear trapezoidal rule. The oral bioavailability (% F) was determined by comparison of the area under the curve (AUC) of the compound and/or a metabolite generated in plasma following oral administration to that generated following intravenous administration.
# [9] = tested on: stable HCV 1b RLuc replicon cells (genotype 1b Con1 replicon); experiment: microbe, parasite or virus in culture; type: cell-based; conditions: Hepatitis C virus, read-out: 1b (nM)
Compound,EC50 ([1]; read-out: 1a),EC50 ([1]; read-out: 1a (nM)),EC50 ([2]; read-out: 2a JFH),EC50 ([2]; read-out: 2a JFH (nM)),EC50 ([3]; read-out: 3a),EC50 ([3]; read-out: 3a (nM)),EC50 ([4]; read-out: 2a J6),EC50 ([4]; read-out: 2a J6 (s) (nM)),EC50 ([4]; read-out: 2a Jb (t) (nM)),EC50 ([5]; read-out: 2b),EC50 ([5]; read-out: 2b (s) (nM)),EC50 ([5]; read-out: 2b (t) (nM)),EC50 ([6]; read-out: 4a),EC50 ([6]; read-out: 4a (s) (nM)),EC50 ([7]; read-out: 1a Q30R),EC50 ([7]; read-out: 1a Q30R (nM)),bioavailability [8],EC50 ([6]; read-out: 4a (t) (nM)),EC50 [9]
"COC[C@H]1C[C@@H](c2nc3ccc4cc5c(cc4c3[nH]2)OCc2cc(-c3cnc([C@@H]4CC[C@H](C)N4C(=O)[C@@H](NC(=O)OC)C(C)C)[nH]3)ccc2-5)N(C(=O)[C@H](NC(=O)OC)c2ccccc2)C1 [Example NP, Methyl {(2S)-1-[(2S,5S)-2-(5-{2-[(2S,4S)-1-{(2R)-2-[(methoxycarbonyl)amino]-2-phenylacetyl}-4-(methoxymethyl)pyrrolidin-2-yl]-1,11 dihydroisochromeno[4′,3′:6,7]naphtho[1,2-d]imidazol-9-yl}-1H-imidazol-2-yl)-5-methylpyrrolidin-1-yl]-3-methyl-1-oxobutan-2-yl}carbamate]",< 1 nM,0.014 nM,< 1 nM,0.007 nM,< 1 nM,0.02 nM,< 1 nM,0.096 nM,0.01 nM,< 1 nM,0.043 nM,0.011 nM,< 1 nM,0.028 nM,< 1 nM,0.032 nM,26.1%,–,–
"COC[C@H]1C[C@@H](c2nc3ccc4cc5c(cc4c3[nH]2)OCc2cc(-c3cnc([C@@H]4C[C@H](C)CN4C(=O)[C@H](NC(=O)OC)c4ccccc4)[nH]3)ccc2-5)N(C(=O)[C@@H](NC(=O)OC)C(C)C)C1 [Example PF, methyl {1-[2-{9-[2-(1-{[(methoxycarbonyl)amino](phenyl)acetyl}-4-methylpyrrolidin-2-yl)-1H-imidazol-5-yl]-1,11-dihydroisochromeno[4′,3′:6,7]naphtho[1,2-d]imidazol-2-yl}-4-(methoxymethyl)pyrrolidin-1-yl]-3-methyl-1-oxobutan-2-yl}carbamate]",< 1 nM,0.032 nM,< 1 nM,0.014 nM,< 1 nM,0.072 nM,< 1 nM,0.127 nM,0.025 nM,< 1 nM,0.117 nM,0.023 nM,< 1 nM,0.018 nM,< 1 nM,0.034 nM,4.3%,0.05 nM,–
"COC[C@H]1C[C@@H](c2ncc(-c3ccc4c(c3)COc3cc5c(ccc6nc([C@@H]7CC[C@H](C)N7C(=O)[C@@H](NC(=O)OC)[C@@H](C)OC)[nH]c65)cc3-4)[nH]2)N(C(=O)[C@@H](NC(=O)OC)C(C)C)C1 [Example PI, methyl {(2S)-1-[(2S,4S)-2-(5-{2-[(2S,5S)-1-{(2S,3R)-3-methoxy-2-[(methoxycarbonyl)amino]butanoyl}-5-methylpyrrolidin-2-yl]-1,11-dihydroisochromeno[4′,3′:6,7]naphtho[1,2-d]imidazol-9-yl}-1H-imidazol-2-yl)-4-(methoxymethyl)pyrrolidin-1-yl]-3-methyl-1-oxobutan-2-yl}carbamate]",< 1 nM,0.031 nM,< 1 nM,0.02 nM,< 1 nM,0.065 nM,< 1 nM,–,0.129 nM,< 1 nM,–,0.09 nM,–,–,< 1 nM,0.094 nM,8.7%,–,0.039 nM
"COC[C@H]1C[C@@H](c2ncc(-c3ccc4c(c3)COc3cc5c(ccc6nc([C@@H]7CC[C@H](C)N7C(=O)[C@@H](NC(=O)OC)C(C)C)[nH]c65)cc3-4)[nH]2)N(C(=O)[C@H](NC(=O)OC)c2ccccc2)C1 [Example PY, Methyl {(2S)-1-[(2S,5S)-2-(9-{2-[(2S,4S)-1-{(2R)-2-[(methoxycarbonyl)amino]-2-phenylacetyl}-4-(methoxymethyl)pyrrolidin-2-yl]-1H-imidazol-5-yl}-1,11-dihydroisochromeno[4′,3′:6,7]naphtho[1,2-d]imidazol-2-yl)-5-methylpyrrolidin-1-yl]-3-methyl-1-oxobutan-2-yl}carbamate]",< 1 nM,0.012 nM,< 1 nM,0.006 nM,< 1 nM,0.017 nM,< 1 nM,0.098 nM,0.009 nM,< 1 nM,0.03 nM,0.007 nM,< 1 nM,0.018 nM,< 1 nM,0.013 nM,27.7%,–,–

# From patent publication US8575135B2 (Gilead Sciences, Inc., priority 2011, dated 2013)
